# Results as given in publication PMC9898036, “VIP152 is a selective CDK9 inhibitor with pre-clinical in vitro and in vivo efficacy in chronic lymphocytic leukemia” (Leukemia, 2022).
# What was measured:
# Assay type in all cases: binding
# EGFR(E746-A750del) = EGFR(E746-A750del) (Homo sapiens, UniProt P00533, DEL746-750); test: KINOMEscan: EGFR(E746-A750del); settings: 1000 nM, read-out: Percent Control
# DAPK2 = DAPK2 (Homo sapiens, UniProt Q9UIK4); test: KINOMEscan: DAPK2; settings: 1000 nM, read-out: Percent Control
# Estrogen Erα = Estrogen Erα (Homo sapiens, UniProt P03372); test: Eurofins Diversity Panel; settings: hum, Conc. 10 μM
# IKK-epsilon = IKK-epsilon (Homo sapiens, UniProt Q14164); test: KINOMEscan: IKK-epsilon; settings: 1000 nM, read-out: Percent Control
# EPHA4 = EPHA4 (Homo sapiens, UniProt P54764); test: KINOMEscan: EPHA4; settings: 1000 nM, read-out: Percent Control
# [1] = target: JAK2(JH1domain-catalytic) (Homo sapiens, UniProt O60674); test: KINOMEscan: JAK2(JH1domain-catalytic); settings: 1000 nM, read-out: Percent Control
# TIE2 = TIE2 (Homo sapiens, UniProt Q02763); test: KINOMEscan: TIE2; settings: 100 nM, read-out: Percent Control
# MAP4K5 = MAP4K5 (Homo sapiens, UniProt Q9Y4K4); test: KINOMEscan: MAP4K5; settings: 1000 nM, read-out: Percent Control
# [2] = target: Transporter, Dopamine (DAT) (Homo sapiens, UniProt Q01959); test: Eurofins Diversity Panel; settings: hum, Conc. 10 μM
# SBK1 = SBK1 (Homo sapiens, UniProt Q52WX2); test: KINOMEscan: SBK1; settings: 100 nM, read-out: Percent Control
# MST4 = MST4 (Homo sapiens, UniProt Q9P289); test: KINOMEscan: MST4; settings: 1000 nM, read-out: Percent Control
# TRPM6 = TRPM6 (Homo sapiens, UniProt Q9BX84); test: KINOMEscan: TRPM6; settings: 100 nM, read-out: Percent Control
# Opiate κ(OP2, KOP) = Opiate κ(OP2, KOP) (Homo sapiens, UniProt P41145); test: Eurofins Diversity Panel; settings: hum, Conc. 10 μM
# EGFR(S752-I759del) = EGFR(S752-I759del) (Homo sapiens, UniProt P00533, DEL752-759); test: KINOMEscan: EGFR(S752-I759del); settings: 1000 nM, read-out: Percent Control
# SIK2 = SIK2 (Homo sapiens, UniProt Q9H0K1); test: KINOMEscan: SIK2; settings: 100 nM, read-out: Percent Control
# Glutamate, NMDA, Agonism = test: Eurofins Diversity Panel; settings: rat, Conc. 10 μM
# INSRR = INSRR (Homo sapiens, UniProt P14616); test: KINOMEscan: INSRR; settings: 1000 nM, read-out: Percent Control
# ERK2 = ERK2 (Homo sapiens, UniProt P28482); test: KINOMEscan: ERK2; settings: 1000 nM, read-out: Percent Control
# [3] = target: RSK3(Kin.Dom.2-C-terminal) (Homo sapiens, UniProt Q15349); test: KINOMEscan: RSK3(Kin.Dom.2-C-terminal); settings: 100 nM, read-out: Percent Control
# HIPK4 = HIPK4 (Homo sapiens, UniProt Q8NE63); test: KINOMEscan: HIPK4; settings: 1000 nM, read-out: Percent Control
# Cannabinoid CB1 = Cannabinoid CB1 (Homo sapiens, UniProt P21554); test: Eurofins Diversity Panel; settings: hum, Conc. 10 μM
# GABAA, Muscimol, Central = test: Eurofins Diversity Panel; settings: rat, Conc. 10 μM
# CSNK1G3 = CSNK1G3 (Homo sapiens, UniProt Q9Y6M4); test: KINOMEscan: CSNK1G3; settings: 1000 nM, read-out: Percent Control
# FLT3(D835Y) = FLT3(D835Y) (Homo sapiens, UniProt P36888, D835Y); test: KINOMEscan: FLT3(D835Y); settings: 1000 nM, read-out: Percent Control
# AXL = AXL (Homo sapiens, UniProt P30530); test: KINOMEscan: AXL; settings: 1000 nM, read-out: Percent Control
# ERK8 = ERK8 (Homo sapiens, UniProt Q8TD08); test: KINOMEscan: ERK8; settings: 1000 nM, read-out: Percent Control
# ULK1 = ULK1 (Homo sapiens, UniProt O75385); test: KINOMEscan: ULK1; settings: 100 nM, read-out: Percent Control
# FGFR2 = FGFR2 (Homo sapiens, UniProt P21802); test: KINOMEscan: FGFR2; settings: 1000 nM, read-out: Percent Control
# [4] = target: RSK1(Kin.Dom.2-C-terminal) (Homo sapiens, UniProt Q15418); test: KINOMEscan: RSK1(Kin.Dom.2-C-terminal); settings: 100 nM, read-out: Percent Control
# WNK3 = WNK3 (Homo sapiens, UniProt Q9BYP7); test: KINOMEscan: WNK3; settings: 100 nM, read-out: Percent Control
# LCK = LCK (Homo sapiens, UniProt P06239); test: KINOMEscan: LCK; settings: 1000 nM, read-out: Percent Control
# CSNK2A2 = CSNK2A2 (Homo sapiens, UniProt P19784); test: KINOMEscan: CSNK2A2; settings: 1000 nM, read-out: Percent Control
# CDC2L1 = CDC2L1 (Homo sapiens, UniProt P21127); test: KINOMEscan: CDC2L1; settings: 1000 nM, read-out: Percent Control
# FGFR1 = FGFR1 (Homo sapiens, UniProt P11362); test: KINOMEscan: FGFR1; settings: 1000 nM, read-out: Percent Control
# CDK5 = CDK5 (Homo sapiens, UniProt Q00535); test: KINOMEscan: CDK5; settings: 1000 nM, read-out: Percent Control
# CAMK2A = CAMK2A (Homo sapiens, UniProt Q9UQM7); test: KINOMEscan: CAMK2A; settings: 1000 nM, read-out: Percent Control
# KIT(V559D) = KIT(V559D) (Homo sapiens, UniProt P10721, V559D); test: KINOMEscan: KIT(V559D); settings: 1000 nM, read-out: Percent Control
# ACVR1B = ACVR1B (Homo sapiens, UniProt P36896); test: KINOMEscan: ACVR1B; settings: 1000 nM, read-out: Percent Control
# MAP4K2 = MAP4K2 (Homo sapiens, UniProt Q12851); test: KINOMEscan: MAP4K2; settings: 1000 nM, read-out: Percent Control
# JNK1 = JNK1 (Homo sapiens, UniProt P45983); test: KINOMEscan: JNK1; settings: 1000 nM, read-out: Percent Control
# CAMKK2 = CAMKK2 (Homo sapiens, UniProt Q96RR4); test: KINOMEscan: CAMKK2; settings: 1000 nM, read-out: Percent Control
# Chain of SBK1 (Q52WX2 whole entry): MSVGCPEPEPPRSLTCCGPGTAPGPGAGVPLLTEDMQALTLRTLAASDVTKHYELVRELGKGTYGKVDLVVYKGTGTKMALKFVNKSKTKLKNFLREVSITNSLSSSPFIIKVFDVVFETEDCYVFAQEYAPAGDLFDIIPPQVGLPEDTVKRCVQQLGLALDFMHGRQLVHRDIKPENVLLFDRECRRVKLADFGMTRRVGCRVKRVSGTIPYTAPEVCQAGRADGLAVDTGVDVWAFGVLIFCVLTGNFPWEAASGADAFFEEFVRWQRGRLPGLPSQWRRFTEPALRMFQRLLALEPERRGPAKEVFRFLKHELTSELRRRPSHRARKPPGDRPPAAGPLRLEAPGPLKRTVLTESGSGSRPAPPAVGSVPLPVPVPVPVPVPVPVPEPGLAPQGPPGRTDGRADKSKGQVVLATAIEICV
# Chain of AXL (P30530 26-894): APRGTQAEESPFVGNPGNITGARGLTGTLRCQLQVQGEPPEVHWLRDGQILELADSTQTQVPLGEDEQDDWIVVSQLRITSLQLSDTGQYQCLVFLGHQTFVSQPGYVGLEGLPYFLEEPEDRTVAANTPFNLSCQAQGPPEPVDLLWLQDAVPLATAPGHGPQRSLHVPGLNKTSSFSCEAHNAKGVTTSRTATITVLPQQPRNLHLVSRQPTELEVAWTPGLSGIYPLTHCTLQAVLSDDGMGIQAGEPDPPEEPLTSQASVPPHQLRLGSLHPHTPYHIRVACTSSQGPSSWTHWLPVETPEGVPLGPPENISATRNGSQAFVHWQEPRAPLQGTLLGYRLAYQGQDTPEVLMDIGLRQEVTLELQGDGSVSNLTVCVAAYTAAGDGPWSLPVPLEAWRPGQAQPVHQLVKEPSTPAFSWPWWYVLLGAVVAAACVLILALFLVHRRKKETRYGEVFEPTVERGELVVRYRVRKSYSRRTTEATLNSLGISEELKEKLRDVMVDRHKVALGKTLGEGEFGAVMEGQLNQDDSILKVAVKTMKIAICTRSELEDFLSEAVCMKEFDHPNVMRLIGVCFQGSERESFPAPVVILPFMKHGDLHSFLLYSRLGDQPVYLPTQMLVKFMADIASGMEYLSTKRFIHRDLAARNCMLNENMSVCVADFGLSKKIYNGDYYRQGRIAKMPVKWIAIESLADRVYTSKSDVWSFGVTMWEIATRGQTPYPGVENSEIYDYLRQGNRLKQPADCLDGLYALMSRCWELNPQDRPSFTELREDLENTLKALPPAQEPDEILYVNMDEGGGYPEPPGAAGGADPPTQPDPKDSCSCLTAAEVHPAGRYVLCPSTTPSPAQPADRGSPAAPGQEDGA
# Chain of FGFR2 (P21802 22-821): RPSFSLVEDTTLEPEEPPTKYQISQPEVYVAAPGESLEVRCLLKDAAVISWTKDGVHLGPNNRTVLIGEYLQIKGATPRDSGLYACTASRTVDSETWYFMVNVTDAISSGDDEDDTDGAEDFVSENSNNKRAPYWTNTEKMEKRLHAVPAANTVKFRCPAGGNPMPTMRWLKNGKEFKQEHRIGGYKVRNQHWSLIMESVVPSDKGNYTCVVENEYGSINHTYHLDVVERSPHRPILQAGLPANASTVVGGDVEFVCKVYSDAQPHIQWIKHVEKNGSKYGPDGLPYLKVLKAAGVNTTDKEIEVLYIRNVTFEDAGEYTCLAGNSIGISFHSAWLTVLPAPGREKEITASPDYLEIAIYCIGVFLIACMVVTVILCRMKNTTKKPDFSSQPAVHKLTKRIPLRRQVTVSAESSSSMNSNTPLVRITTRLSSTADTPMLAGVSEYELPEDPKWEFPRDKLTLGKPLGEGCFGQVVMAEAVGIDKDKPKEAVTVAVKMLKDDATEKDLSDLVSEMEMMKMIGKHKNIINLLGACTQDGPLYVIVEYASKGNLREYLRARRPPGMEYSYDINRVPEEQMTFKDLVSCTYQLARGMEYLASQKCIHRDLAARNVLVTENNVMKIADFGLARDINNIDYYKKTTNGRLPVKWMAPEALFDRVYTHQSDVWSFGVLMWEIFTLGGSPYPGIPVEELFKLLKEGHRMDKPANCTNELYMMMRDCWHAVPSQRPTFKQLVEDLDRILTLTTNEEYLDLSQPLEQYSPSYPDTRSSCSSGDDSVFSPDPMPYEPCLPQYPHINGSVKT
# Chain of EGFR(S752-I759del) (P00533 with tags, fused parts or gaps DEL752-759 limits assumed): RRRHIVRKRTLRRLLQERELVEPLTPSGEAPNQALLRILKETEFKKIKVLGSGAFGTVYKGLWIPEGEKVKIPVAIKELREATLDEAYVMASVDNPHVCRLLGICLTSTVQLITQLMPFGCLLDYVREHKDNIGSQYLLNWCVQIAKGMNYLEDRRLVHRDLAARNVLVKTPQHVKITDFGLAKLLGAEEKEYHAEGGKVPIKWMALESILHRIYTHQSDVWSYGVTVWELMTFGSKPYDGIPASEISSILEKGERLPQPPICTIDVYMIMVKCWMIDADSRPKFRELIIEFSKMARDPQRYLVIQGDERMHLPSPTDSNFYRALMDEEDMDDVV
# Chain of EGFR(E746-A750del) (P00533 with tags, fused parts or gaps DEL746-750 limits assumed): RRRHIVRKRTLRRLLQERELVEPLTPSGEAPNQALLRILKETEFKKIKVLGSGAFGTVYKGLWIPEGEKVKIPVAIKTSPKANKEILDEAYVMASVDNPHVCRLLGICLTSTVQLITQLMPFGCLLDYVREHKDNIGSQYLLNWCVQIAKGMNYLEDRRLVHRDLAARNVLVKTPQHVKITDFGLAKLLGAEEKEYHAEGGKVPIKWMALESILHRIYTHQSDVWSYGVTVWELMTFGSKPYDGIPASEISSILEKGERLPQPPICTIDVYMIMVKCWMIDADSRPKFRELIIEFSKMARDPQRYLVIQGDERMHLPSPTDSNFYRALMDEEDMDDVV
# Chain of ERK2 (P28482 whole entry): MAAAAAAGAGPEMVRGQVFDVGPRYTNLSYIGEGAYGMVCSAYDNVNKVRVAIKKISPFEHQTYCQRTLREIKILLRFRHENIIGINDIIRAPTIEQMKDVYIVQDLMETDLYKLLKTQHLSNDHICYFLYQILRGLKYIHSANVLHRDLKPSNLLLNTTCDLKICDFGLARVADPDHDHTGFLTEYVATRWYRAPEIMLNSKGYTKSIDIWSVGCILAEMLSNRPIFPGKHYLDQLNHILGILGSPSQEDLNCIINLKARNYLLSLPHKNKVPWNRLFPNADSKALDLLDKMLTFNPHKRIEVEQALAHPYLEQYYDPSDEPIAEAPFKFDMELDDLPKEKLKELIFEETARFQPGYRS
# Chain of KIT(V559D) (P10721 26-976 V559D): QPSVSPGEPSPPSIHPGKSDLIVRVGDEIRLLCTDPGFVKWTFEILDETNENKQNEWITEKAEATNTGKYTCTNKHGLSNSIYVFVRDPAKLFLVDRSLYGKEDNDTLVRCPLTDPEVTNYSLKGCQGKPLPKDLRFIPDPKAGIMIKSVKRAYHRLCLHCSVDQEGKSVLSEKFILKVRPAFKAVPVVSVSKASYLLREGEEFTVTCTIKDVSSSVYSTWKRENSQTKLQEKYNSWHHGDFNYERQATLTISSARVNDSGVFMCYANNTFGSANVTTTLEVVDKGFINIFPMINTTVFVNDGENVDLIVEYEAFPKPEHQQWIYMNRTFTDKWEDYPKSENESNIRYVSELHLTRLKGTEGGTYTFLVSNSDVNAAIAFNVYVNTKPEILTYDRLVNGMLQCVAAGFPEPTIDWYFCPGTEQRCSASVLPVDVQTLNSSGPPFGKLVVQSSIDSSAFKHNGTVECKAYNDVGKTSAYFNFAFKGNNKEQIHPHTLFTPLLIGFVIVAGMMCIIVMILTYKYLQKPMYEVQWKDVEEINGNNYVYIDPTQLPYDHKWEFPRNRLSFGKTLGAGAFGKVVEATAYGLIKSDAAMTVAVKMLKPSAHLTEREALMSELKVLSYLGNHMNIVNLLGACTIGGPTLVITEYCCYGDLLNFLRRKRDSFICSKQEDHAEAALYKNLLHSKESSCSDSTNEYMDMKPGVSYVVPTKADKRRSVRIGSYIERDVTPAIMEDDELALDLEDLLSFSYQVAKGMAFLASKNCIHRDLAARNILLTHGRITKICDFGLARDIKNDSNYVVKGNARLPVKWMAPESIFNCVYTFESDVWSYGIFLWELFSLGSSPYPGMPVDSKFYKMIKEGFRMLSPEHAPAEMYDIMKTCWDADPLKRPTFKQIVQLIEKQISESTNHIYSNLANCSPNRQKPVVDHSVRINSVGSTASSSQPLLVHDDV
# Chain of Estrogen Erα (P03372 whole entry): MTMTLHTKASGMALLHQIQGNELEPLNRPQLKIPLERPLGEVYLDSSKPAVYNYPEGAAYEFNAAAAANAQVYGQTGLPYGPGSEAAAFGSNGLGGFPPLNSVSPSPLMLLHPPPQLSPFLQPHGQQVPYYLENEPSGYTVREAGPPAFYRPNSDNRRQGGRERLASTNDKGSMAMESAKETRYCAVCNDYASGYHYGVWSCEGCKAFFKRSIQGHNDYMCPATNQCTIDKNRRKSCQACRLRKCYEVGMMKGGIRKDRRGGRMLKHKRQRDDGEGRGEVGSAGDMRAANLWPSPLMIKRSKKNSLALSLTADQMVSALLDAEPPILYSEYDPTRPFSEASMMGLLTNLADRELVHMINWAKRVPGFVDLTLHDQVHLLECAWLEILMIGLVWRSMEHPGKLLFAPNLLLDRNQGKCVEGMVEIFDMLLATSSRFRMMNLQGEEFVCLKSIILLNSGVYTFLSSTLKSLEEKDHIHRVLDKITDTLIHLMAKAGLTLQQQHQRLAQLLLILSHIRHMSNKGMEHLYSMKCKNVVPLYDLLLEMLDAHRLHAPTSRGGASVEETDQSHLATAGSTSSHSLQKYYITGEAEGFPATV
# Chain of CSNK2A2 (P19784 whole entry): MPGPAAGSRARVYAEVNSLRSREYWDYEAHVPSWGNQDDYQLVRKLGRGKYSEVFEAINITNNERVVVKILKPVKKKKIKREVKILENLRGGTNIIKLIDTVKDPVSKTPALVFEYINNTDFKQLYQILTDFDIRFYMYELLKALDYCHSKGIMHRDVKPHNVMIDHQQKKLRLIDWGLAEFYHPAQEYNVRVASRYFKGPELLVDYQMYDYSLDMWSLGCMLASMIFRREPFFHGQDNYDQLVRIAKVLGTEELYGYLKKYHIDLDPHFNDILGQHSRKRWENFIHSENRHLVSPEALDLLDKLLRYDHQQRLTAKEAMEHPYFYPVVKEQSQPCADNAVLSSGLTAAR
smiles,measurement,setting,value
COc1cc(F)ccc1-c1cc(Nc2cc(CS(C)(=N)=O)ccn2)ncc1F (centres unmarked) [VIP152],remaining binding at 1 µM,EGFR(E746-A750del),76%
same,remaining binding at 1 µM,DAPK2,89%
same,inhibition at 10 µM,Estrogen Erα,6%
same,remaining binding at 1 µM,IKK-epsilon,51%
same,remaining binding at 1 µM,EPHA4,94%
same,remaining binding at 1 µM,[1],66%
same,remaining binding at 0.1 µM,TIE2,100%
same,remaining binding at 1 µM,MAP4K5,41%
same,inhibition at 10 µM,[2],31%
same,remaining binding at 0.1 µM,SBK1,95%
same,remaining binding at 1 µM,MST4,89%
same,remaining binding at 0.1 µM,TRPM6,100%
same,inhibition at 10 µM,"Opiate κ(OP2, KOP)",8%
same,remaining binding at 1 µM,EGFR(S752-I759del),97%
same,remaining binding at 0.1 µM,SIK2,63%
same,% Inh.,"Glutamate, NMDA, Agonism",3%
same,remaining binding at 1 µM,INSRR,85%
same,remaining binding at 1 µM,ERK2,99%
same,remaining binding at 0.1 µM,[3],100%
same,remaining binding at 1 µM,HIPK4,68%
same,inhibition at 10 µM,Cannabinoid CB1,16%
same,% Inh.,"GABAA, Muscimol, Central",-3%
same,remaining binding at 1 µM,CSNK1G3,97%
same,remaining binding at 1 µM,FLT3(D835Y),67%
same,remaining binding at 1 µM,AXL,50%
same,remaining binding at 1 µM,ERK8,58%
same,remaining binding at 0.1 µM,ULK1,93%
same,remaining binding at 1 µM,FGFR2,70%
same,remaining binding at 0.1 µM,[4],100%
same,remaining binding at 0.1 µM,WNK3,95%
same,remaining binding at 1 µM,LCK,56%
same,remaining binding at 1 µM,CSNK2A2,69%
same,remaining binding at 1 µM,CDC2L1,96%
same,remaining binding at 1 µM,FGFR1,83%
same,remaining binding at 1 µM,CDK5,83%
same,remaining binding at 1 µM,CAMK2A,84%
same,remaining binding at 1 µM,KIT(V559D),82%
same,remaining binding at 1 µM,ACVR1B,96%
same,remaining binding at 1 µM,MAP4K2,26%
same,remaining binding at 1 µM,JNK1,82%
same,remaining binding at 1 µM,CAMKK2,16%
